Experimental data reported in US12508313B2, “Quinoline derivative-containing pharmaceutical composition” (Eisai R&D Management Co., Ltd., priority 2009, dated 2025).

Experiment: Storage stability of capsules, degradants determined by high-performance liquid chromatography
Assay type: physicochemical
Details: Initial (before storage); HPLC
Experimental: The capsules in Examples 16 to 17 and Comparative Example 6 were stored for 1 week in an open system under an environment at a temperature of 60° C. and a relative humidity of 75%, followed by determining the production of the degradants with high-performance liquid chromatography. In the capsule formulation in Comparative Example 6, in which neither calcium carbonate nor magnesium carbonate was mixed, an amount of the degradants was increased. In contrast, in the capsules in Examples 16 to 17, in which calcium carbonate or magnesium carbonate was mixed, no increase in amount of the degradants was observed (Table 8).

COc1cc2nccc(Oc3ccc(NC(=O)NC4CC4)c(Cl)c3)c2cc1C(N)=O.CS(=O)(=O)O [Compound A, 4-(3-chloro-4-(cyclopropylaminocarbonyl)aminophenoxy)-7-methoxy-6-quinolinecarboxamide methanesulfonate]
Quantitated compound A (%): 98.38%
